Experimental data as given in patent US7858349B2, “Anti-cancer compounds” (The Regents of the University of Colorado, priority 1999, dated 2010).

Test system: SCLC strain SHP-77
Assay: MTT assay for cell survival, SCLC SHP-77 in vitro
Assay type: cell-based, human
Details: ED50 for killing of SCLC strain SHP-77 in vitro, 4 days, 0 = no detectable activity, read-out: SCLC SHP-77 IC50

Compared with O=C(N[C@H]1CN2CCC1CC2)C(Cc1ccc(OCc2c(Cl)cccc2Cl)cc1)NC(=O)C(c1ccccc1)C1CCCCC1 (single isomer, unassigned) [M-1548 #1], CC1(C)CC(NC(=O)C(Cc2ccc(OCc3c(Cl)cccc3Cl)cc2)NC(=O)CCCCC2SCC3NC(=O)NC32)CC(C)(C)N1 (centres unmarked) [Analog M-1436, Biot-OC2Y-Atmp] is higher in IC50: 4 µM for the first, > 60 µM for the second.

O=C(N[C@H]1CN2CCC1CC2)C(Cc1ccc(OCc2c(Cl)cccc2Cl)cc1)NC(=O)C(c1ccccc1)C1CCCCC1 (single isomer, unassigned) [M-1548 #2] and CC1(C)CC(NC(=O)[C@H](Cc2ccc(C#N)cc2)NC(=O)C(C2CCCCC2)C2CCCCC2)CC(C)(C)N1 [Analog M-1516, Dca-PCNF-Atmp] are within 1.5-fold of each other in IC50: 13 µM for the first, 11 µM for the second.

CC1(C)CC(NC(=O)C(NC(=O)c2ccccn2)C2Cc3ccccc3C2)CC(C)(C)N1 (stereo not drawn) [Analog M-1354, Pic-Igl-Atmp] and CC1(C)CC(NC(=O)C(NC(=O)c2ccc(B(O)O)cc2)C2Cc3ccccc3C2)CC(C)(C)N1 (stereo not drawn) [Analog M-1374, Bbz-Igl-Atmp] cannot be ordered by IC50: > 60 µM for the first, > 60 µM for the second.

First: COC(=O)CN1C(C)CN(C(=O)C(Cc2ccc(F)cc2)NC(=O)C=Cc2c(F)c(F)c(F)c(F)c2F)CC1C (centres unmarked) [Analog M-1432, F5c-PFF-Dmmp]
Second: CC1(C)CC(NC(=O)C(Cc2ccc(C#N)cc2)NC(=O)c2c(F)c(F)c(F)c(F)c2F)CC(C)(C)N1 (centres unmarked) [Analog M-1490, F5bz-PCNF-Atmp]
The IC50 of the first is lower: 18 µM for the first, > 60 µM for the second. The first is the more potent here.

Going from CC1(C)CC(NC(=O)C(Cc2ccc(C#N)cc2)NC(=O)CCCc2c[nH]c3ccccc23)CC(C)(C)N1 (centres unmarked) [Analog M-1476, 3Ibu-PCNF-Atmp] to CC1(C)CC(NC(=O)[C@H](Cc2ccc(C#N)cc2)NC(=O)CCCc2ccc(N(CCCl)CCCl)cc2)CC(C)(C)N1 [Analog M-1500, Chl-PCNF-Atmp], the IC50 falls from > 60 µM to 25 µM.

First: CCCCCCC(O)CC=CCCCCCCCC(=O)NC(Cc1ccc(C#N)cc1)C(=O)NC1CC(C)(C)NC(C)(C)C1 (centres unmarked) [Analog M-1478, Rio-PCNF-Atmp]
Second: CC1(C)CC(NC(=O)[C@H](Cc2ccc(C#N)cc2)NC(=O)c2cnccn2)CC(C)(C)N1 [Analog M-1524, 2Pyz-PCNF-Atmp]
The IC50 of the first is lower: 14 µM for the first, > 60 µM for the second.

CC1(C)CC(NC(=O)C(Cc2ccc(C#N)cc2)NC(=O)COc2c(F)c(F)c(F)c(F)c2F)CC(C)(C)N1 (centres unmarked) [Analog M-1488, F5po-PCNF-Atmp] and CC1(C)CC(NC(=O)C(Cc2ccc(C#N)cc2)NC(=O)C=Cc2cc(F)cc(F)c2F)CC(C)(C)N1 (centres unmarked) [Analog M-1504, F3c-PCNF-Atmp] cannot be ordered by IC50: > 60 µM for the first, > 60 µM for the second.

In the case of Cc1ccc(CSC(C)(C)C(NC(=O)C(C2CCCCC2)C2CCCCC2)C(=O)NC2CC(C)(C)NC(C)(C)C2)cc1 (centres unmarked) [Analog M-1514, Dca-Pen(Mbzl)-Atmp], the IC50 is reported as 7.3 µM.

Same assay, conditions: ED50 for killing of SCLC strain SHP-77 in vitro, 4 days, 0 = no detectable activity, read-out: SHP-77 In vitro IC50

First: CC1(C)CC(NC(=O)C(Cc2ccc(OP(=O)(O)OCc3ccccc3)cc2)NC(=O)C=Cc2c(F)c(F)c(F)c(F)c2F)CC(C)(C)N1 (centres unmarked) [Analog M-1080, F5c-OBPY-Atmp]
Second: CC1(C)CC(NC(=O)C(Cc2ccccc2)NC(=O)C=Cc2c(F)c(F)c(F)c(F)c2F)CC(C)(C)N1 (centres unmarked) [Analog M-1178, F5c-Phe-Atmp]
The IC50 of the first is higher: > 60 µM for the first, 15 µM for the second. The second is the more potent here.

First: CC1(C)CC(NC(=O)C(Cc2c[nH]c3ccccc23)NC(=O)C(N)CCC(=O)O)CC(C)(C)N1 (stereo not drawn) [Analog M-1120, Glu-Trp-Atmp]
Second: CC1(C)CC(NC(=O)C(CCc2ccccc2)NC(=O)C=Cc2c(F)c(F)c(F)c(F)c2F)CC(C)(C)N1 (centres unmarked) [Analog M-1176, F5c-hPhe-Atmp]
The IC50 of the first is higher: > 60 µM for the first, 14 µM for the second.

Compared with CC1(C)CC(NC(=O)C(Cc2ccc(F)cc2)NC(=O)C=Cc2c(F)c(F)c(F)c(F)c2F)CC(C)(C)N1 (centres unmarked) [Analog M-1140, F5c-PFF-Atmp], CC1(C)CC(NC(=O)C(Cc2ccc(I)cc2)NC(=O)C=Cc2c(F)c(F)c(F)c(F)c2F)CC(C)(C)N1 (centres unmarked) [Analog M-1142, F5c-PIF-Atmp] is 2.1-fold lower in IC50: 15 µM for the first, 7.2 µM for the second.

CC1(C)CC(NC(=O)C(Cc2ccc(C(F)(F)F)cc2)NC(=O)C=Cc2c(F)c(F)c(F)c(F)c2F)CC(C)(C)N1 (centres unmarked) [Analog M-1146, F5c-F3MF-Atmp] and CN(C(=O)C=Cc1c(F)c(F)c(F)c(F)c1F)C(Cc1ccccc1)C(=O)NC1CC(C)(C)NC(C)(C)C1 (centres unmarked) [Analog M-1148, F5c-NMF-Atmp] are within 1.5-fold of each other in IC50: 12 µM for the first, 15.5 µM for the second.

Compared with CC1(C)CC(NC(=O)C(NC(=O)C=Cc2c(F)c(F)c(F)c(F)c2F)C(c2ccccc2)c2ccccc2)CC(C)(C)N1 (centres unmarked) [Analog M-1150, F5c-Dip-Atmp], O=C(C=Cc1c(F)c(F)c(F)c(F)c1F)NC(Cc1ccc(F)cc1)C(=O)N1CCN(C(c2ccccc2)c2ccc(Cl)cc2)CC1 (centres unmarked) [Analog M-1202, F5c-PFF-Cbp] is 6-fold higher in IC50: 5 µM for the first, 30 µM for the second.

Going from CC1(C)CC(NC(=O)C(Cc2ccc(F)cc2)NC(=O)C=Cc2ccoc2)CC(C)(C)N1 (centres unmarked) [Analog M-1152, 3-Fa-PFF-Atmp] to O=C(C=Cc1cccnc1)NC(Cc1ccc(F)cc1)C(=O)N1CCN(c2ccc(Cl)cc2)CC1 (centres unmarked) [Analog M-1212, Pya-PFF-Cpp], the IC50 falls from > 60 µM to 10 µM.

Going from CN1CCN(C(=O)C(Cc2ccc(F)cc2)NC(=O)C=Cc2c(F)c(F)c(F)c(F)c2F)CC1 (centres unmarked) [Analog M-1158, F5c-PFF-Mpz] to O=C(C=Cc1c(F)c(F)c(F)c(F)c1F)NC(Cc1ccc(F)cc1)C(=O)N1CCN(c2ncccn2)CC1 (centres unmarked) [Analog M-1162, F5c-PFF-Pmpz], the IC50 falls from 28 µM to 15 µM (1.9-fold). The second is the more potent here.

Going from CC1CN(C(=O)C(Cc2ccc(F)cc2)NC(=O)C=Cc2c(F)c(F)c(F)c(F)c2F)CC(C)N1 (centres unmarked) [Analog M-1160, F5c-PFF-Dmpz] to CC1CN(C(=O)C(Cc2ccc(I)cc2)NC(=O)C=Cc2c(F)c(F)c(F)c(F)c2F)CC(C)N1 (centres unmarked) [Analog M-1254, F5c-PIF-Dmpz], the IC50 falls from 24 µM to 10 µM (2.4-fold). The second is the more potent here.

O=C(C=Cc1c(F)c(F)c(F)c(F)c1F)NC(Cc1ccc(F)cc1)C(=O)N1CCN(c2ccccn2)CC1 (centres unmarked) [Analog M-1164, F5c-PFF-Pypz] and O=C(C=Cc1c(F)c(F)c(F)c(F)c1F)NC(Cc1ccc(I)cc1)C(=O)N1CCN(c2ccccn2)CC1 (centres unmarked) [Analog M-1248, F5c-PIF-Pypz] are within 1.5-fold of each other in IC50: 14 µM for the first, 13 µM for the second.

Compared with O=C(C=Cc1c(F)c(F)c(F)c(F)c1F)NC(Cc1c(F)c(F)c(F)c(F)c1F)C(=O)NC1CCN(Cc2ccccc2)CC1 (centres unmarked) [Analog M-1182, F5c-F5F-Abzp], CC1CN(C(=O)C(Cc2c(F)c(F)c(F)c(F)c2F)NC(=O)C=Cc2c(F)c(F)c(F)c(F)c2F)CC(C)N1 (centres unmarked) [Analog M-1186, F5c-F5F-Dmpz] is 1.8-fold lower in IC50: 19.5 µM for the first, 11 µM for the second. The second is the more potent here.

Compared with O=C(C=Cc1cccnc1)NC(Cc1ccc2ccccc2c1)C(=O)N1CCN(C(c2ccccc2)c2ccc(Cl)cc2)CC1 (stereo not drawn) [Analog M-1204, Pya-Nal-Cbp], O=C(C=Cc1c(F)c(F)c(F)c(F)c1F)NC(Cc1ccc(F)cc1)C(=O)N1CCN(c2ccc(Cl)cc2)CC1 (centres unmarked) [Analog M-1208, F5c-PFF-Cpp] is 4-fold higher in IC50: 7.5 µM for the first, 30 µM for the second.

O=C(C=Cc1c(F)c(F)c(F)c(F)c1F)NC1(C(=O)N(Cc2ccccn2)Cc2ccccn2)Cc2ccccc2C1 [Analog M-1218, F5c-Aic-Dpic] and O=C(C=Cc1c(F)c(F)c(F)c(F)c1F)NC(Cc1ccc(I)cc1)C(=O)N(Cc1ccccn1)Cc1ccccn1 (centres unmarked) [Analog M-1256, F5c-PIF-Dpic] are within 1.5-fold of each other in IC50: 14 µM for the first, 13 µM for the second.

Compared with O=C(C=Cc1c(F)c(F)c(F)c(F)c1F)NC(Cc1ccc2ccccc2c1)C(=O)N1CCC(N2CCCCC2)CC1 (centres unmarked) [Analog M-1250, F5c-Nal-Pipp], O=C(C=Cc1cc(C(F)(F)F)cc(C(F)(F)F)c1)NC(Cc1ccc(I)cc1)C(=O)N1CCN(c2ccccn2)CC1 (centres unmarked) [Analog M-1252, Tf2c-PIF-Pypz] is higher in IC50: 7.6 µM for the first, > 60 µM for the second. The first is the more potent here.
